Key:
B6.Sle1(a+b) mice = test: Suppression of anti-nuclear autoantibody (ANA) production in B6.Sle1(a+b) mice; anti-histone-DNA ANA in sera by ELISA; type: in vivo, mouse; conditions: daily intraperitoneal injection, 75 mg/kg body weight for 4 weeks, sera before, during and after treatment
Experimental: T0 represents the OD value for measuring the titer of anti-Histone/DNA antibodies before treatment. T represents the OD value for measuring the titer of anti-Histone/DNA antibodies at a time point during or after treatment. Each point represents Mean±SE. Mice in control group were given vehicle (Tricaprylin) only.
To study whether POH can inhibit anti-nuclear autoantibody (ANA) production, the inventors treated B6.Sle1(a+b) mice by daily intraperitoneal injection of POH at a dose of 75 mg/kg body weight for 4 weeks. Sera were collected before, during, and after treatment. Levels of anti-histone-DNA ANA were determined by ELISA.

[1] = system: ras protein farnesylation; conditions: has been shown (prior knowledge); cited from earlier work

SMILES: C=C(C)[C@@H]1CC=C(CO)CC1 [POH, Perillyl alcohol]
- Sle1-mediated anti-histone-DNA ANA production (B6.Sle1(a+b) mice; FIG. 3): can be suppressed
- Sle1-mediated anti-histone-DNA ANA production (B6.Sle1(a+b) mice; FIG. 3, listed as perillyl alcohol (POH)): Inhibitory effect
- ras protein farnesylation [1]: has been shown to inhibit ras protein farnesylation
